# PMC10545747, “Development of cyclopeptide inhibitors of cGAS targeting protein-DNA interaction and phase separation” (Nature Communications, 2023)
# “And” between values parts separate entries of the source, which are not always exact repeats. Equal values may be shown once. Square brackets hold non-standard residues; d marks the D form. Peptide text beside a SMILES is read from it.
# Key:
# [1] = tested on: dsDNA-stimulated THP1 cells; assay: qPCR of IFNB1/CXCL10/IL6 mRNA in THP1 cells stimulated by dsDNA (ISD, HSV60mer); type: cell-based, human; conditions: for IFNB1 mRNA level (Fig. S7c): XQ2B; for Relative mRNA level CXCL10 (Fig. S7d) / Relative mRNA level IFNB1 (Fig. S7d) / Relative mRNA level IL6 (Fig. S7d): ISD +
# Description: To screen direct cGAS inhibitors targeting protein-DNA interface from our developed focused library of macrocyclic peptides, we applied an RNA-based fluorescent biosensor for 2’,3’-cGAMP to detect cGAS activity in vitro (Supplementary Fig. 1a)[49]. The formation of 2’,3’-cGAMP from ATP and GTP was catalyzed by recombinant human cGAS enzyme (hcGAS-ΔN, residues 147–522, Supplementary Fig. 1b) in the presence of ISD (interferon stimulatory DNA, a 45-bp dsDNA), which was readily quantified by the RNA-based fluorescent biosensor and was further confirmed by ion exchange chromatography (Supplementary Fig. 1c). […] Subsequently, a total of 90 macrocyclic peptides were screened at a concentration of 20 μM (Fig. 1a and Supplementary Fig. 1e), and 4 hits (XQ2, XQ8, XQ19, and XQ46) were obtained for further testing at a cut-off of 40% inhibition (Supplementary Table 1). To evaluate the inhibitory effect of the hits against cGAS in cells, we employed real-time quantitative PCR (qPCR) to examine mRNA levels of IFNΒ1 in THP1 cells. The reported cGAS inhibitor RU.521 was used as the positive control, and the non-active peptide XQ28 in the screening assay was used as the negative control. […] The inhibition of cGAS by these hits was further confirmed in the reporter cell line THP1-Lucia ISG (Invivogen) that expresses secreted luciferase induced by an IRF3-inducible ISG54 promoter (Fig. 1c). The discrepancy between the inhibitory effect of the hits in protein and cellular assays may be attributed to their different cellular permeability.
# (§1) The indicated cells were stimulated with either ISD (Sangon Biotech), HSV-1 (Provided by Dr. Zhengfan Jiang), HSV60mer (Sangon Biotech), SATE-cddA[70], 2’3’-cGAMP (Invivogen, Cat# tlrl-nacga23-1), ADU-S100 (MedChemExpress, Cat# HY-12885A) or Poly(I:C) (Invivogen, Cat# tlrl-pic) after XQ2 or XQ2B treatment. Total RNA was isolated from indicated cells that incubated with the drugs for indicated time or mice tissues by using NucleoZOL reagent (MACHEREY-NAGEL) according to the manufacturer’s instructions. The quantifications of mRNA levels were carried out by real-time PCR using a PerfectStart® Uni RT&qPCR Kit (TransGen Biotech) on the QuantStudio 5 qPCR machine (Applied Biosystems). Samples were carried out in triplicate and the target CT values were normalized to GAPDH CT values. Primers of qPCR used in this study can be found in Supplementary Table S2.
# L929 cells = assay: ISD-induced autophagy, LC3-II immunoblotting; type: cell-based, mouse
# Experimental: Total cell lysates were prepared in RIPA lysis buffer (Beyotime Biotechnology) supplemented with 1 mM PMSF and 1× protease inhibitor cocktail (Yeasen), and nuclear protein was extracted by nuclear protein extraction kit (Solarbio) in accordance with the manufacturer’s instructions. The samples were separated by SDS-PAGE and transferred to the PVDF membrane (Millipore). The membranes were incubated with the indicated primary antibodies at 4 °C overnight and then incubated with an HRP-conjugated anti-rabbit IgG antibody (Cell Signaling, Cat# 7074, 1:5000) or anti-mouse IgG antibody (Cell Signaling, Cat# 7076, 1:5000) at room temperature for 1 h. The signal was visualized by using the NcmECL Ultra kit (New Cell & Molecular Biotech) and then was exposed by using MiniChemi (SageCreation).
# (§2) Supplementary Fig. 3. […] (a) L929 cells were pretreated for
# (§3) 4 h with DMSO or the indicated doses of XQ2, followed by stimulation with dsDNA for 4 h, and then cell lysates were
# (§4) (b) Jurkat cells were exposed to the indicated doses of XQ2, and then stimulated with
# (§5) Data are representative of three independent experiments in (a, b). (Data are presented as mean ± SD, n = 3 independent
# (§6) provided as a Source Data file.
# (§7) (1 picture or pasted object on this page, not shown here)
# Jurkat cells = tested on: Jurkat cells
# Experimental: Cell viability was measured by cell counting kit-8 (TargetMol) according to the manufacturer’s instructions.
# as §2, §3, §4, §5, §6, §7
# [2] = tested on: HSV-1-infected THP1 cells; assay: qPCR of IFNB1/CXCL10/IL6 mRNA in THP1 cells stimulated by HSV-1 infection; type: cell-based, human; conditions: HSV-1, XQ2B
# HSV-1 in THP1 cells = assay: HSV-1(UL5) mRNA by qPCR (virus infection of cells); type: cell-based, herpes simplex virus-1; set-up: key to HSV-1(UL5) mRNA, qPCR, Fig. 5d / HSV-1(UL5) mRNA (Fig. S8e): relative mRNA level, target CT normalized to GAPDH CT
# Experimental: as §1
smiles,measurement,setting,value
CC(C)C[C@@H]1NC(=O)[C@H](CCCNC(=N)N)NC(=O)[C@H](C(C)C)NC(=O)[C@@H]2CCCN2C(=O)[C@@H](Cc2ccccc2)NC(=O)[C@H](CC(C)C)NC(=O)[C@H](CCCNC(=N)N)NC(=O)[C@H]([C@@H](C)O)NC(=O)[C@H](C)NC(=O)[C@@H](Cc2ccccc2)NC1=O [XQ2B] (cyclo([dF]ATRL[dF]PVRL)),IFNB1 mRNA level (Fig. S7c),[1]; HSV60mer,40.2098 and 37.8755 and 37.7329
same,Relative mRNA level CXCL10 (Fig. S7d),[1]; XQ2B 0.63 μM,75.7262 and 111.48 and 109.732
same,Relative mRNA level IFNB1 (Fig. S7d),[1]; XQ2B 0.63 μM,143.341 and 159.417 and 146.307
same,Relative mRNA level IL6 (Fig. S7d),[1]; XQ2B 0.63 μM,4.851 and 5.001 and 4.853
same,Relative mRNA level CXCL10 (Fig. S7d),[1]; XQ2B 1.25 μM,71.0232 and 80.5931 and 82.552
same,Relative mRNA level IFNB1 (Fig. S7d),[1]; XQ2B 1.25 μM,150.862 and 127.331 and 129.696
same,Relative mRNA level IL6 (Fig. S7d),[1]; XQ2B 1.25 μM,5.209 and 4.534 and 5.634
same,Relative mRNA level CXCL10 (Fig. S7d),[1]; XQ2B 2.5 μM,65.3896 and 90.4406 and 75.1347
same,Relative mRNA level IFNB1 (Fig. S7d),[1]; XQ2B 2.5 μM,125.32 and 106.736 and 118.852
same,Relative mRNA level IL6 (Fig. S7d),[1]; XQ2B 2.5 μM,3.096 and 3.258 and 2.284
same,Relative mRNA level CXCL10 (Fig. S7d),[1]; XQ2B 5 μM,49.8503 and 48.6212 and 43.7599
same,Relative mRNA level IFNB1 (Fig. S7d),[1]; XQ2B 5 μM,64.7201 and 61.5772 and 71.2108
same,Relative mRNA level CXCL10 (Fig. S7d),[1]; XQ2B 10 μM,34.1653 and 30.6356 and 36.3338
same,Relative mRNA level IFNB1 (Fig. S7d),[1]; XQ2B 10 μM,33.5888 and 35.227 and 34.4163
same,Relative mRNA level IL6 (Fig. S7d),[1]; XQ2B 10 μM,0.9806 and 0.7505 and 1.24
same,Relative mRNA level CXCL10 (Fig. S7d),[1]; XQ2B 20 μM,10.6053 and 10.5964 and 12.3293
same,Relative mRNA level IFNB1 (Fig. S7d),[1]; XQ2B 20 μM,3.764 and 4.346 and 4.187
same,IFNB1 mRNA level (Fig. S7c),[1]; ISD,15.0362 and 16.705 and 17.0928
same,IFNB1 mRNA level (Fig. S7c),[1]; Mock,1.262 and 0.9081 and 0.8724
same,"dsDNA/ISD-induced IFNB1, CXCL10, IL6 expression",[1]; THP1,comparable cGAS inhibitory effect as that of XQ2
same,"ISD-induced autophagy, LC3-II formation",L929 cells,markedly reduced ISD-induced autophagy and cell death
same,ISD-induced cell death,Jurkat cells,markedly reduced ISD-induced autophagy and cell death
same,IFNB1 mRNA level (Fig. S7c),[2],7.282 and 8.679 and 8.662
same,"HSV-1 infection of THP1 cells, HSV1(UL5) mRNA",HSV-1 in THP1 cells; 10 μM,facilitated HSV-1 infection
same,HSV-1(UL5) mRNA (Fig. S8e),HSV-1 in THP1 cells; HSV-1(1×104) 24h,2.313 and 2.598 and 2.002
same,HSV-1(UL5) mRNA (Fig. S8e),HSV-1 in THP1 cells; HSV-1(2×104) 24h,4.745 and 4.808 and 4.905
